Reference: the NIST ThermoML archive (doi:10.1021/je800636k)
Numbers after ± are expanded uncertainties.

Assay: xn = mol fraction of the nth substance listed
Settings: 101 kPa, Liquid; for electrical conductivity: Qcond 2400 VWR international / cell constant, 1.05; for viscosity: Concentric cylinders viscometry; for mass density: Vibrating tube method

CCCCn1cc[n+](C)c1C.[N-]=[N+]=[N-] [1-butyl-2,3-dimethylimidazolium azide] + CCCCn1cc[n+](C)c1C.F[B-](F)(F)F
Settings | electrical conductivity [S/m] | mass density [kg/m3] | viscosity [mPa·s]
303.15 K, x1 = 0.25 | 0.0809 ± 0.0032 | – | –
303.15 K, x1 = 0.5 | 0.0608 ± 0.0024 | – | –
303.15 K, x1 = 0.75 | 0.0604 ± 0.0024 | – | –
303.15 K, x1 = 1 | 0.0488 ± 0.0019 | – | –
308.15 K, x1 = 0.25 | 0.114 ± 0.0046 | – | –
308.15 K, x1 = 0.5 | 0.0887 ± 0.0036 | – | –
308.15 K, x1 = 0.75 | 0.0881 ± 0.0035 | – | –
308.15 K, x1 = 1 | 0.0756 ± 0.003 | – | –
313.15 K, x1 = 0.25 | 0.156 ± 0.0062 | 1154.97 ± 2.6 | 210.46 ± 5.5
313.15 K, x1 = 0.5 | 0.125 ± 0.005 | 1129.46 ± 2.5 | 292.06 ± 8.3
313.15 K, x1 = 0.75 | 0.124 ± 0.005 | 1098.68 ± 2.3 | 353.89 ± 11
313.15 K, x1 = 1 | 0.112 ± 0.0045 | 1070.46 ± 2.2 | 338.19 ± 10
318.15 K, x1 = 0.25 | 0.208 ± 0.0083 | – | –
318.15 K, x1 = 0.5 | 0.172 ± 0.0069 | – | –
318.15 K, x1 = 0.75 | 0.171 ± 0.0068 | – | –
318.15 K, x1 = 1 | 0.159 ± 0.0064 | – | –
323.15 K, x1 = 0.25 | 0.271 ± 0.011 | 1148.74 ± 2.5 | 115.24 ± 2.4
323.15 K, x1 = 0.5 | 0.23 ± 0.0092 | 1123.48 ± 2.4 | 156.81 ± 3.6
323.15 K, x1 = 0.75 | 0.228 ± 0.0091 | 1092.32 ± 2.3 | 183.02 ± 4.4
323.15 K, x1 = 1 | 0.219 ± 0.0088 | 1065.14 ± 2.2 | 176.04 ± 4.2
328.15 K, x1 = 0.25 | 0.345 ± 0.014 | – | –
328.15 K, x1 = 0.5 | 0.302 ± 0.012 | – | –
328.15 K, x1 = 0.75 | 0.299 ± 0.012 | – | –
328.15 K, x1 = 1 | 0.294 ± 0.012 | – | –
333.15 K, x1 = 0.25 | 0.433 ± 0.017 | 1142.5 ± 2.5 | 68.72 ± 1.2
333.15 K, x1 = 0.5 | 0.388 ± 0.015 | 1117.5 ± 2.4 | 92.5 ± 1.8
333.15 K, x1 = 0.75 | 0.383 ± 0.015 | 1085.96 ± 2.3 | 105.08 ± 2.1
333.15 K, x1 = 1 | 0.383 ± 0.015 | 1059.83 ± 2.2 | 101.63 ± 2
338.15 K, x1 = 0.25 | 0.535 ± 0.021 | – | –
338.15 K, x1 = 0.5 | 0.489 ± 0.02 | – | –
338.15 K, x1 = 0.75 | 0.483 ± 0.019 | – | –
338.15 K, x1 = 1 | 0.49 ± 0.02 | – | –
343.15 K, x1 = 0.25 | 0.651 ± 0.026 | 1136.27 ± 2.5 | 43.88 ± 0.76
343.15 K, x1 = 0.5 | 0.608 ± 0.024 | 1111.52 ± 2.4 | 58.77 ± 1
343.15 K, x1 = 0.75 | 0.599 ± 0.024 | 1079.6 ± 2.3 | 65.45 ± 1.1
343.15 K, x1 = 1 | 0.614 ± 0.025 | 1054.52 ± 2.2 | 63.6 ± 1.1
348.15 K, x1 = 0.25 | 0.783 ± 0.031 | – | –
348.15 K, x1 = 0.5 | 0.744 ± 0.03 | – | –
348.15 K, x1 = 0.75 | 0.733 ± 0.029 | – | –
348.15 K, x1 = 1 | 0.756 ± 0.03 | – | –
353.15 K, x1 = 0.25 | 0.929 ± 0.037 | 1130.03 ± 2.5 | 29.62 ± 0.51
353.15 K, x1 = 0.5 | 0.899 ± 0.036 | 1105.54 ± 2.4 | 39.64 ± 0.68
353.15 K, x1 = 0.75 | 0.885 ± 0.035 | 1073.24 ± 2.2 | 43.5 ± 0.75
353.15 K, x1 = 1 | 0.918 ± 0.037 | 1049.21 ± 2.1 | 42.44 ± 0.73
358.15 K, x1 = 0.25 | 1.09 ± 0.044 | – | –
358.15 K, x1 = 0.5 | 1.07 ± 0.043 | – | –
358.15 K, x1 = 0.75 | 1.06 ± 0.042 | – | –
358.15 K, x1 = 1 | 1.1 ± 0.044 | – | –
363.15 K, x1 = 0.25 | 1.27 ± 0.051 | 1123.8 ± 2.4 | 20.94 ± 0.36
363.15 K, x1 = 0.5 | 1.27 ± 0.051 | 1099.56 ± 2.3 | 28.06 ± 0.48
363.15 K, x1 = 0.75 | 1.25 ± 0.05 | 1066.87 ± 2.2 | 30.46 ± 0.52
363.15 K, x1 = 1 | 1.3 ± 0.052 | 1043.9 ± 2.1 | 29.82 ± 0.51
368.15 K, x1 = 0.25 | 1.47 ± 0.059 | – | –
368.15 K, x1 = 0.5 | 1.49 ± 0.059 | – | –
368.15 K, x1 = 0.75 | 1.46 ± 0.058 | – | –
368.15 K, x1 = 1 | 1.52 ± 0.061 | – | –
373.15 K, x1 = 0.25 | – | 1117.56 ± 2.4 | 15.38 ± 0.26
373.15 K, x1 = 0.5 | – | 1093.58 ± 2.3 | 20.68 ± 0.36
373.15 K, x1 = 0.75 | – | 1060.51 ± 2.2 | 22.27 ± 0.38
373.15 K, x1 = 1 | – | 1038.59 ± 2.1 | 21.87 ± 0.38
